Reference: paper PMC6152329, “Antitumoural Sulphur and Selenium Heteroaryl Compounds: Thermal Characterization and Stability Evaluation” (Molecules : A Journal of Synthetic Chemistry and Natural …, 2017)

Assays:
[1] = tested on: breast adenocarcinoma (MCF-7) cell line; assay: MTT cell viability assay, 72 h, MCF-7; type: cell-based, human; conditions: for SI (selectivity index): GI50(184B5)/GI50(MCF-7); for TGI: concentration that completely inhibits cell growth; for LD50: concentration that kills 50% of cells
Description: (§1) The novel synthetic compounds VA2J, VA4J, VA6G, VA6H, VA6I and VA6J were tested in breast adenocarcinoma (MCF-7) and non-malignant mammary-gland-derived (184B5) cell lines to be able to establish their potency and selectivity. The reference drug used was methylseleninic acid (MSA) as a Se-containing structure with promising in vitro and in vivo results against different tumour types. Results are expressed as the concentration that inhibits 50% cell growth (GI50), the concentration that inhibits completely cell growth (TGI) and the concentration that kills 50% of cells (LD50). The selectivity index (SI) is calculated as GI50(184B5)/GI50(MCF-7).
(§2) Cell lines were purchased from the American Type Culture Collection (ATCC, Barcelona, Spain). MCF7 cell lines were grown in Roswell Park Memorial Institute (RPMI) medium (Gibco, Madrid, Spain) supplemented with 10% fetal bovine serum (FBS; Gibco), 100 units/mL penicillin and […] (Gibco, Madrid, Spain). 184B5 cells were grown in DMEM/F12 medium supplemented with 5% FBS, 1x ITS (Lonza, Barcelona, Spain), 100 nM hydrocortisone (Sigma Aldrich, Madrid, Spain), 2 mM sodium pyruvate (Lonza), 20 ng/mL EGF (Sigma Aldrich, Madrid, Spain), 0.3 nM trans-retinoic acid (Sigma-Aldrich) 100 units/mL penicillin and […]. Cells were maintained at 37 °C and 5% CO2.
(§3) Compounds were dissolved in DMSO at a concentration of 0.01 M. Serial dilutions were prepared with non-supplemented medium. The cytotoxic effect of each compound was tested at eight different concentrations ranging between 0.01 and 100 µM.
(§4) A total of 10^4 cells/well in 96 well-plates were treated with either DMSO or increasing concentrations of the corresponding compound for 72 h and cell viability was determined using the MTT (3-(4,5-dimethylthiazol-2-yl)-2,5-diphenyltetrazolium bromide) (Sigma Aldrich, Madrid, Spain) assay. Briefly, cells were incubated with 50 µL of MTT (2 mg/mL stock) for 4 h. The medium was then removed by aspiration and the formazan crystals were dissolved in 150 µL of DMSO. The absorbance was measured at 550 nm in a microplate reader (Sunrise, Tecan, Männedorf, Switzerland). […] Data were obtained from at least three independent experiments performed in quadruplicate.

[2] = tested on: non-malignant mammary-gland-derived (184B5) cell line; assay: MTT cell viability assay, 72 h, 184B5; type: cell-based; conditions: 184B5, 72 h
Description: as §1, §2, §3, §4

[3] = Thermogravimetric (TG) analysis of thermal stability; type: physicochemical; conditions: nitrogen, 50 to 350 °C, 10 °C/min
Description: The thermogravimetric (TG) studies were carried out with a Perkin–Elmer TGA-7 (Perkin Elmer, Inc. Watham, MA, USA) which was calibrated with alumel and nickel at 10 °C·min^−1. The calibration of the oven temperatures was carried out automatically and mass calibrated with a certified sample of 10 mg (ASTM E617, provided by Perkin Elmer, Inc. Watham, MA, USA). TG analyses were performed under a nitrogen atmosphere with a gas flow of 40 mL·min^−1, from 50 to 350 °C, at a heating rate of 10 °C·min^−1, using a sample of approximately 3 mg, in order to obtain the values of the Tonset and Tmax of the degradation process as well as any associated mass loss.

[4] = DSC successive melting-recrystallization cycles, polymorphic behaviour; type: physicochemical; parameters: key: I: Compounds that show a polymorphic phase transition into an amorphous or mainly amorphous solid form after a first melting–cooling scan; II: Compounds that change into a new polymorphic form with a different Tonset of fusion than the one observed at the first melting–recrystallization scan after cooling; III: These compounds show a fusion process without modifications in the thermal behaviour after an initial fusion–recrystallization cycle; IV: Compounds that show recrystallization or other types of phase transition of the original form into another crystalline one in the first heat scan; V: Compounds without fusion processes at the range of temperatures studied; *: fusion with decomposition; conditions: 10 °C/min
Description: To establish general polymorphic behaviours, samples of all the compounds synthetized (Figure 1) were exposed to successive cycles of melting–recrystallization using DSC. Calorimetric analyses were performed before the beginning of the degradation process (Table 6). […] This behaviour was shown by several compounds: VA1C, VA2E, VA8E, series H, VA6I, VA8J, VA6M and VA8M. DSC and PXRD results of compound VA7H are shown as supplementary material (Figures S1 and S2 and Table S1). • Behaviour II—Compounds that change into a new polymorphic form with a different Tonset of fusion than the one observed at the first melting–recrystallization scan after cooling. These compounds are VA7E and VA8O. DSC and PXRD results of compound VA7E are shown as supplementary material (Figures S3 and S4, Table S2). • Behaviour III—These compounds show a fusion process without modifications in the thermal behaviour after an initial fusion–recrystallization cycle. Consequently, there is no evidence of polymorphic behaviour. The compounds VA2C, VA2M, VA4J and VA5O belong to this group. DSC and PXRD results of compound VA2M are shown as supplementary material (Figures S5 and S6, Table S3). • Behaviour IV—Compounds that show recrystallization or other types of phase transition of the original form into another crystalline one in the first heat scan. In the successive cycles of melting–recrystallization, the new form may not alter its crystalline form or transit to another polymorphic form. Compounds VA6E, VA7J and VA7M show this behaviour. • Behaviour V—Compounds without fusion processes at the range of temperatures studied.
For calorimetric studies a Perkin–Elmer DSC diamond calibrated with indium and zinc (provided by Perkin–Elmer (Perkin Elmer, Inc. Watham, MA, USA) and fabricated according to guideline ISO35) at 10 °C·min^−1 and nitrogen flow of 20 mL·min^−1 was employed. The gas connected to the equipment was nitrogen with a purity of 99.999%. Calorimetric analyses were carried out in aluminium capsules for volatilities of 10 μL, at a heating rate of 10 °C·min^−1, using a sample of approximately 3 mg, in order to establish the Tonset, Tmax and the enthalpy of fusion ∆Hf.
The calorimetric analyses started with the study of the thermal behaviour of the compounds before the process of degradation in order to evidence the possible existence of polymorphism. For this preliminary study, samples of all the compounds were exposed to successive cycles of heating–cooling. All samples were heated from 50 °C to temperatures 15–20 °C below Tonset of the degradation process, in order to ensure that compounds were not degraded (Table 6). After melting the samples, they were left at room temperature for enough time to allow the compounds to recrystallize before the successive thermal process. Additional cycles of heating–cooling were performed if polymorphism was detected.

Compound	TG To (Tonset of thermal degradation) [3]	DSC Behaviour (polymorphic/calorimetric behaviour) [4]	other results
C[Se](=O)O [MSA, methylseleninic acid, reference compound]			SI (selectivity index) [1]: 1.40; TGI ([1]; MCF-7, 72 h, MTT): 3.43 µM; GI50 ([1]; MCF-7, 72 h, MTT, concentration that inhibits 50% cell growth): 1.28 µM; LD50 ([1]; MCF-7, 72 h, MTT): >100 µM; GI50 [2]: 1.79 µM; LD50 [2]: >100 µM; TGI [2]: 3.84 µM
[SeH]c1nc2ccccc2s1 [VA1C]	218.4 °C	I	
[SeH]Cc1c2ccccc2nc2ccccc12 [VA1D]	244.7 °C	V	
Sc1ccnc(S)n1 [VA2B]	263.3 °C	V	
Sc1nc2ccccc2s1 [VA2C]	224.7 °C	III	
SCc1cc2c(cc1Br)OCO2 [VA2E]	266.2 °C	I	
Cl.N=C(N)Sc1nc2ccccc2nc1S [VA2J, 3-Mercaptoquinoxalin-2-yl Carbamimidothioate Hydrochloride]	199.2 °C	*	SI (selectivity index) [1]: 5.66; TGI ([1]; MCF-7, 72 h, MTT): 13.90 µM; LD50 ([1]; MCF-7, 72 h, MTT): 44.02 µM; LD50 [2]: 20.48 µM; TGI [2]: 15.97 µM; GI50 ([2]; Homo sapiens): 12.5 µM
O=C1c2ccccc2C(=O)N1CS [VA2M]	166.0 °C	III	
CSc1ccnc(SC)n1 [VA4B]	103.5 °C	V	
CSc1nc2ccccc2s1 [VA4C]	131.8 °C	V	
CSc1ccc2ccccc2n1 [VA4H]	105.6 °C	I	
Cc1noc(C)c1C[Se]C#N [VA5O]	141.7 °C	III	
N#C[Se]Cc1ccc(-n2cccc2)cc1 [VA5P]	149.4 °C	*	
N#CSCc1c2ccccc2nc2ccccc12 [VA6D]	205.0 °C	V	
N#CSCc1ccc2c(c1)C(=O)c1ccccc1C2=O [VA6G, (9,10-Dioxo-9,10-dihydroanthracen-2-yl)methyl Thiocyanate]	238.3 °C	V	SI (selectivity index) [1]: 3.99; TGI ([1]; MCF-7, 72 h, MTT): 23.95 µM; LD50 ([1]; MCF-7, 72 h, MTT): 67.27 µM; LD50 [2]: 64.84 µM; TGI [2]: 34.32 µM; GI50 ([2]; Homo sapiens): 14.3 µM
N#CSCN1C(=O)c2ccccc2C1=O [VA6M]	164.8 °C	I	
N=C(N)[Se]Cc1cc2c(cc1Br)OCO2 [VA7E]	205.2 °C	II	

Compound	TG To (Tonset of thermal degradation) [3]	DSC Behaviour (polymorphic/calorimetric behaviour) [4]	other results
N=C(N)[Se]Cc1ccc([N+](=O)[O-])o1 [VA7F]	214.7 °C	*	
N=C(N)[Se]Cc1ccc2c(c1)C(=O)c1ccccc1C2=O [VA7G]	198.2 °C	V	
N=C(N)[Se]Cc1ccc2ccccc2n1 [VA7H]	145.8 °C	I	
COc1cc2oc(=O)cc(C[Se]C(=N)N)c2cc1OC [VA7I]	226.4 °C	*	
N=C(N)[Se]CN1C(=O)c2ccccc2C1=O [VA7M]	255.8 °C	IV	
Cc1noc(C)c1C[Se]C(=N)N [VA7O]	185.9 °C	V	
N=C(N)[Se]Cc1ccc(-n2cccc2)cc1 [VA7P]	175.8 °C	*	
N=C(N)SCc1c2ccccc2nc2ccccc12 [VA8D]	193.1 °C	*	
N=C(N)SCc1cc2c(cc1Br)OCO2 [VA8E]	215.1 °C	I	
N=C(N)SCc1ccc([N+](=O)[O-])o1 [VA8F]	190.8 °C	*	
N=C(N)SCc1ccc2c(c1)C(=O)c1ccccc1C2=O [VA8G]	243.7 °C	V	
N=C(N)SCc1ccc2ccccc2n1 [VA8H]	190.2 °C	I	
COc1cc2oc(=O)cc(CSC(=N)N)c2cc1OC [VA8I]	272.4 °C	*	
N=C(N)SCc1nc2ccccc2nc1CSC(=N)N [VA8J]	251.05 °C	I	
N=C(N)SCN1C(=O)c2ccccc2C1=O [VA8M]	233.1 °C	I	
Cc1noc(C)c1CSC(=N)N [VA8O]	201.8 °C	II	
N=C(N)SCc1ccc(-n2cccc2)cc1 [VA8P]	199.8 °C	*	
